pKi: −log10 of the molar value.
Biological target: GST-Bcl-2 (Homo sapiens (Human), UniProt P10415)
Test: Time Resolved-Fluorescence Resonance Energy Transfer (TR-FRET) Bcl-2 binding assay
Conditions: GST-Bcl-2 1 nM, F-Bak peptide probe 100 nM, Tb-anti-GST antibody 1 nM; Ki by Wang's equation
Procedure, shortened: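 Competition TR-FRET: GST-Bcl-2 with fluorescent Bak peptide probe and Tb-anti-GST antibody, compounds serially diluted from 50 μM (2× start, 10% DMSO).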

Chain of GST-Bcl-2 (P10415 whole entry): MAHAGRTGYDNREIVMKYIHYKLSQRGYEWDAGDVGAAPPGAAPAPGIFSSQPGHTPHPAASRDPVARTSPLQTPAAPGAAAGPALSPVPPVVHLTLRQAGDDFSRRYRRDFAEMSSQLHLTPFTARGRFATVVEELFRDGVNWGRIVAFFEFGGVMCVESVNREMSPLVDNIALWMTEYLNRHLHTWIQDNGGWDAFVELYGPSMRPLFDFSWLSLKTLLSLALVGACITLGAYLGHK

SMILES | pKi
CC1(C)CCC(CN2CCN(c3ccc(C(=O)NS(=O)(=O)c4ccc(NC[C@@H]5CCCOC5)c([N+](=O)[O-])c4)c(Oc4cc5cc[nH]c5cc4F)c3)CC2)=C(c2ccc(Cl)cc2)C1 [Example 258, 4-(4-{[2-(4-chlorophenyl)-4,4-dimethylcyclohex-1-en-1-yl]methyl}piperazin-1-yl)-2-[(6-fluoro-1H-indol-5-yl)oxy]-N-[(3-nitro-4-{[(3S)-tetrahydro-2H-pyran-3-ylmethyl]amino}phenyl)sulfonyl]benzamide] | 10.08
CC1(C)CCC(CN2CCN(c3ccc(C(=O)NS(=O)(=O)c4ccc(NC[C@H]5CCCOC5)c([N+](=O)[O-])c4)c(Oc4cc5cc[nH]c5cc4F)c3)CC2)=C(c2ccc(Cl)cc2)C1 [Example 259, 4-(4-{[2-(4-chlorophenyl)-4,4-dimethylcyclohex-1-en-1-yl]methyl}piperazin-1-yl)-2-[(6-fluoro-1H-indol-5-yl)oxy]-N-[(3-nitro-4-{[(3R)-tetrahydro-2H-pyran-3-ylmethyl]amino}phenyl)sulfonyl]benzamide] | 9.78
CC1(C)CCC(CN2CCN(c3ccc(C(=O)NS(=O)(=O)c4ccc(NCC5CCOCC5)c([N+](=O)[O-])c4)c(Oc4cccc5c4CCN(C(=O)OC(C)(C)C)C5)c3)CC2)=C(c2ccc(Cl)cc2)C1 [Example 260, tert-butyl 5-(5-(4-{[2-(4-chlorophenyl)-4,4-dimethylcyclohex-1-en-1-yl]methyl}piperazin-1-yl)-2-{[({3-nitro-4-[(tetrahydro-2H-pyran-4-ylmethyl)amino]phenyl}sulfonyl)amino]carbonyl}phenoxy)-3,4-dihydro isoquinoline-2(H)-carboxylate] | 7.93
CC1(C)CCC(CN2CCN(c3ccc(C(=O)NS(=O)(=O)c4ccc(NC5CCN(C6CCOCC6)CC5)c([N+](=O)[O-])c4)c(Oc4ccc(N)nc4)c3)CC2)=C(c2ccc(Cl)cc2)C1 [Example 261, 2-[(6-aminopyridin-3-yl)oxy]-4-(4-{[2-(4-chlorophenyl)-4,4-dimethylcyclohex-1-en-1-yl]methyl}piperazin-1-yl)-N-({3-nitro-4-[(1-tetrahydro-2H-pyran-4-ylpiperidin-4-yl)amino]phenyl}sulfonyl)benzamide] | 9.73
CC1(C)CCC(c2ccc(Cl)cc2)=C(CN2CCN(c3ccc(C(=O)NS(=O)(=O)c4ccc(NCC5CCOCC5)c([N+](=O)[O-])c4)c(Oc4cc5cc[nH]c5cc4F)c3)CC2)C1 [Example 262, 4-(4-{[2-(4-chlorophenyl)-5,5-dimethylcyclohex-1-en-1-yl]methyl}piperazin-1-yl)-2-[(6-fluoro-1H-indol-5-yl)oxy]-N-({3-nitro-4-[(tetrahydro-2H-pyran-4-ylmethyl)amino]phenyl}sulfonyl)benzamide] | 9.56
COCCNc1ccc(S(=O)(=O)NC(=O)c2ccc(N3CCN(CC4=C(c5ccc(Cl)cc5)CC(C)(C)CC4)CC3)cc2Oc2cc3cc[nH]c3cc2F)cc1[N+](=O)[O-] [Example 263, 4-(4-{[2-(4-chlorophenyl)-4,4-dimethylcyclohex-1-en-1-yl]methyl}piperazin-1-yl)-2-[(6-fluoro-1H-indol-5-yl)oxy]-N-({4-[(2-methoxyethyl)amino]-3-nitrophenyl}sulfonyl)benzamide] | 9.96
CC1(C)CCC(CN2CCN(c3ccc(C(=O)NS(=O)(=O)c4ccc(OCC5CCOCC5)c([N+](=O)[O-])c4)c(Oc4cc5cc[nH]c5cc4F)c3)CC2)=C(c2ccc(Cl)cc2)C1 [Example 264, 4-(4-{[2-(4-chlorophenyl)-4,4-dimethylcyclohex-1-en-1-yl]methyl}piperazin-1-yl)-2-[(6-fluoro-1H-indol-5-yl)oxy]-N-{[3-nitro-4-(tetrahydro-2H-pyran-4-ylmethoxy)phenyl]sulfonyl}benzamide] | 10.17
CC1(C)CCC(CN2CCN(c3ccc(C(=O)NS(=O)(=O)c4ccc(NCC5CCOCC5)c([N+](=O)[O-])c4)c(Oc4ccc5[nH]cc(Cl)c5c4)c3)CC2)=C(c2ccc(Cl)cc2)C1 [Example 265, 2-[(3-chloro-1H-indol-5-yl)oxy]-4-(4-{[2-(4-chlorophenyl)-4,4-dimethylcyclohex-1-en-1-yl]methyl}piperazin-1-yl)-N-({3-nitro-4-[(tetrahydro-2H-pyran-4-ylmethyl)amino]phenyl}sulfonyl)benzamide] | 9.44
CC1(C)CCC(CN2CCN(c3ccc(C(=O)NS(=O)(=O)c4ccc(NCC5CCOCC5)c([N+](=O)[O-])c4)c(Oc4cccc5[nH]cc(Cl)c45)c3)CC2)=C(c2ccc(Cl)cc2)C1 [Example 266, 2-[(3-chloro-1H-indol-4-yl)oxy]-4-(4-{[2-(4-chlorophenyl)-4,4-dimethylcyclohex-1-en-1-yl]methyl}piperazin-1-yl)-N-({3-nitro-4-[(tetrahydro-2H-pyran-4-ylmethyl)amino]phenyl}sulfonyl)benzamide] | 9.09
CC1(C)CCC(CN2CCN(c3ccc(C(=O)NS(=O)(=O)c4ccc(NCC5CCOCC5)c([N+](=O)[O-])c4)c(Oc4ccc5c(c4)CC(=O)N5)c3)CC2)=C(c2ccc(Cl)cc2)C1 [Example 267, 4-(4-{[2-(4-chlorophenyl)-4,4-dimethylcyclohex-1-en-1-yl]methyl}piperazin-1-yl)-N-({3-nitro-4-[(tetrahydro-2H-pyran-4-ylmethyl)amino]phenyl}sulfonyl)-2-[(2-oxo-2,3-dihydro-1H-indol-5-yl)oxy]benzamide] | 7.55
CC1(C)CCC(CN2CCN(c3ccc(C(=O)NS(=O)(=O)c4ccc(NCC5CCOCC5)c([N+](=O)[O-])c4)c(Oc4ccc(NC(=O)OC(C)(C)C)nc4)c3)CC2)=C(c2ccc(Cl)cc2)C1 [Example 270, tert-butyl 5-(5-(4-{[2-(4-chlorophenyl)-4,4-dimethylcyclohex-1-en-1-yl]methyl}piperazin-1-yl)-2-{[({3-nitro-4-[(tetrahydro-2H-pyran-4-ylmethyl)amino]phenyl}sulfonyl)amino]carbonyl}phenoxy)pyridin-2-ylcarbamate] | < 5.92
CC1(C)CCC(CN2CCN(c3ccc(C(=O)NS(=O)(=O)c4ccc(NC5CCN(C6CCOCC6)CC5)c([N+](=O)[O-])c4)c(Oc4ccnc(NC(=O)OC(C)(C)C)c4)c3)CC2)=C(c2ccc(Cl)cc2)C1 [Example 271, tert-butyl 4-(5-(4-{[2-(4-chlorophenyl)-4,4-dimethylcyclohex-1-en-1-yl]methyl}piperazin-1-yl)-2-{[({3-nitro-4-[(1-tetrahydro-2H-pyran-4-ylpiperidin-4-yl)amino]phenyl}sulfonyl)amino]carbonyl}phenoxy)pyridin-2-ylcarbamate] | 8.72
CC1(C)CCC(CN2CCN(c3ccc(C(=O)NS(=O)(=O)c4ccc(NCC5CCOCC5)c([N+](=O)[O-])c4)c(Oc4ccc(N)nc4)c3)CC2)=C(c2ccc(Cl)cc2)C1 [Example 272, 2-[(6-aminopyridin-3-yl)oxy]-4-(4-{[2-(4-chlorophenyl)-4,4-dimethylcyclohex-1-en-1-yl]methyl}piperazin-1-yl)-N-({3-nitro-4-[(tetrahydro-2H-pyran-4-ylmethyl)amino]phenyl}sulfonyl)benzamide] | 8.91
CC1(C)CCC(CN2CCN(c3ccc(C(=O)NS(=O)(=O)c4ccc(NC5CCN(C6CCOCC6)CC5)c([N+](=O)[O-])c4)c(Oc4ccnc(N)c4)c3)CC2)=C(c2ccc(Cl)cc2)C1 [Example 273, 2-[(2-aminopyridin-4-yl)oxy]-4-(4-{[2-(4-chlorophenyl)-4,4-dimethylcyclohex-1-en-1-yl]methyl}piperazin-1-yl)-N-({3-nitro-4-[(1-tetrahydro-2H-pyran-4-ylpiperidin-4-yl)amino]phenyl}sulfonyl)benzamide] | 9.29
CC1(C)CCC(CN2CCN(c3ccc(C(=O)NS(=O)(=O)c4ccc(NCC5CCOCC5)c([N+](=O)[O-])c4)c(Oc4cncc(Br)c4)c3)CC2)=C(c2ccc(Cl)cc2)C1 [Example 274, 2-[(5-bromopyridin-3-yl)oxy]-4-(4-{[2-(4-chlorophenyl)-4,4-dimethylcyclohex-1-en-1-yl]methyl}piperazin-1-yl)-N-({3-nitro-4-[(tetrahydro-2H-pyran-4-ylmethyl)amino]phenyl}sulfonyl)benzamide] | 9.03
CC1(C)CC(c2ccc(Cl)cc2)=C(CN2CCN(c3ccc(C(=O)NS(=O)(=O)c4ccc(NCC5CCOCC5)c([N+](=O)[O-])c4)c(Oc4cc5cc[nH]c5cc4Cl)c3)CC2)CO1 [Example 275, 2-[(6-chloro-1H-indol-5-yl)oxy]-4-(4-{[4-(4-chlorophenyl)-6,6-dimethyl-5,6-dihydro-2H-pyran-3-yl]methyl}piperazin-1-yl)-N-({3-nitro-4-[(tetrahydro-2H-pyran-4-ylmethyl)amino]phenyl}sulfonyl)benzamide] | 10.09
CC1(C)CCC(CN2CCN(c3ccc(C(=O)NS(=O)(=O)c4ccc(NCC5CCOCC5)c([N+](=O)[O-])c4)c(Oc4cc5cc[nH]c5cc4Cl)c3)CC2)=C(c2ccc(Cl)cc2)C1 [Example 276, 2-[(6-chloro-1H-indol-5-yl)oxy]-4-(4-{[2-(4-chlorophenyl)-4,4-dimethylcyclohex-1-en-1-yl]methyl}piperazin-1-yl)-N-({3-nitro-4-[(tetrahydro-2H-pyran-4-ylmethyl)amino]phenyl}sulfonyl)benzamide] | 9.70
CC1(C)CC(c2ccc(Cl)cc2)=C(CN2CCN(c3ccc(C(=O)NS(=O)(=O)c4ccc(NCC5CCOCC5)c([N+](=O)[O-])c4)c(Oc4cc5cc[nH]c5cc4F)c3)CC2)CO1 [Example 277, 4-(4-{[4-(4-chlorophenyl)-6,6-dimethyl-5,6-dihydro-2H-pyran-3-yl]methyl}piperazin-1-yl)-2-[(6-fluoro-1H-indol-5-yl)oxy]-N-({3-nitro-4-[(tetrahydro-2H-pyran-4-ylmethyl)amino]phenyl}sulfonyl)benzamide] | 10.77
CC1(C)CCC(CN2CCN(c3ccc(C(=O)NS(=O)(=O)c4ccc(NCC5CCOCC5)c([N+](=O)[O-])c4)c(Oc4cncc(NC(=O)OC(C)(C)C)c4)c3)CC2)=C(c2ccc(Cl)cc2)C1 [Example 278, tert-butyl 5-(5-(4-{[2-(4-chlorophenyl)-4,4-dimethylcyclohex-1-en-1-yl]methyl}piperazin-1-yl)-2-{[({3-nitro-4-[(tetrahydro-2H-pyran-4-ylmethyl)amino]phenyl}sulfonyl)amino]carbonyl}phenoxy)pyridin-3-ylcarbamate] | 7.40

Source: patent US8952157B2, “Apoptosis-inducing agents for the treatment of cancer and immune and autoimmune diseases” (AbbVie Inc., priority 2008, dated 2015)
